{"source": "paper PMC5543143", "about": "“Structural Basis for the Mechanism of ATP-Dependent Acetone Carboxylation” (Scientific Reports, 2017)", "molecules": {"B1": {"name": "acetone carboxylase α subunit (AcxB) from Xanthobacter autotrophicus Py2, recombinant (natural protein, UniProt Q8RM03 1-776, looked up)", "chain": "MNVTVDQSTLAGATRGIVRGGETLKEHRDRLMAATKATGRYAGLKTLELREREPILYNKLFSRLRAGVVDARETAKKIAASPIVEQEGELCFTLYNAAGDSLLTSTGIIIHVGTMGAAIKYMIENNWEANPGVHDKDIFCNNDSLIGNVHPCDIHTIVPIFWEGELIGWVGGVTHVIDTGAVGPGSMATGQVQRFGDGYSITCRKVGANDTLFRDWLHESQRMVRTTRYWMLDERTRIAGCHMIRKLVEEVVAEEGIEAYWKFAYEAVEHGRLGLQARIKAMTIPGTYRQVGFVDVPYAHEDVRVPSDFAKLDTIMHAPCEMTIRRDGTWRLDFEGSSRWGWHTYNAHQVSFTSGIWVMMTQTLIPSEMINDGAAYGTEFRLPKGTWMNPDDRRVAFSYSWHFLVSAWTALWRGLSRSYFGRGYLEEVNAGNANTSNWLQGGGFNQYDEIHAVNSFECAANGTGATAVQDGLSHAAAIWNPEGDMGDMEIWELAEPLVYLGRQIKASSGGSGKYRGGCGFESLRMVWNAKDWTMFFMGNGHISSDWGLMGGYPAASGYRFAAHKTNLKELIASGAEIPLGGDTDPENPTWDAMLPDAQIKRDKQAITTEEMFSDYDLYLNYMRGGPGFGDPLDREPQAVADDINGGYVLERFAGEVYGVVVRKGADGQYGVDEAGTAAARAQIRKDRLAKSVPVSEWMKGEREKILAKDAGTQVRQMFAASFKLGPRFEKDFRTFWSLPDSWTLPEEEIGVPTYGSRYSMDISELPDVHTVQFVEE", "notes": "acetone carboxylase α subunit (75 kDa), gene acxB (Xaut_3510), X. autotrophicus Py2; amplified from the start to the stop codon; Subunit of the (αβγ)2 heterohexamer; The initial structure was solved from selenomethionine-labelled protein; also called AC α; Xaut_3510; source: E. coli BL21(DE3), co-expressed with the β and γ subunits, purified (His-NTA, desalting)"}}, "key": {"[1]": {"target": "T1, native acetone carboxylase (AC) from X. autotrophicus 7C (Xanthobacter versatilis, UniProt Q8RM03+Q8RM04)", "T1 sequence (Q8RM04 whole entry, one chain of several)": "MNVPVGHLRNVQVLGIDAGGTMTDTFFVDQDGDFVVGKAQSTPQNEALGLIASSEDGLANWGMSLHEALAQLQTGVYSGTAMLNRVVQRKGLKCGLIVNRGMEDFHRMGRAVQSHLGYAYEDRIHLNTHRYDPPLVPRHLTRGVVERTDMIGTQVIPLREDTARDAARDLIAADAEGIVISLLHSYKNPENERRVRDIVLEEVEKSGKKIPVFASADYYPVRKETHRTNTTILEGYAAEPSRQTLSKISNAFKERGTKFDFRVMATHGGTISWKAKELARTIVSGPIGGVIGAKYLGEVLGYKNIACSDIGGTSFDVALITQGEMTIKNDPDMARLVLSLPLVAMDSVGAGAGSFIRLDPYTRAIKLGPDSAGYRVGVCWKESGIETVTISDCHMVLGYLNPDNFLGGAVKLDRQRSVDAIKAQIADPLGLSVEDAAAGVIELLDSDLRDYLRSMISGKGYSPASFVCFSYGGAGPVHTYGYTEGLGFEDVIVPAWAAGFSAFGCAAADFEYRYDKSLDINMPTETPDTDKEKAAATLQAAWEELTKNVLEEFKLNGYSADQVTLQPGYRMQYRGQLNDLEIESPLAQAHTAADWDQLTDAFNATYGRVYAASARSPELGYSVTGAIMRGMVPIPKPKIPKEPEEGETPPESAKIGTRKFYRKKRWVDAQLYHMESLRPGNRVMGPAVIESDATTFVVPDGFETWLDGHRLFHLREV", "T1 sequence (Q8RM02 2-168, one chain of several, further chain)": "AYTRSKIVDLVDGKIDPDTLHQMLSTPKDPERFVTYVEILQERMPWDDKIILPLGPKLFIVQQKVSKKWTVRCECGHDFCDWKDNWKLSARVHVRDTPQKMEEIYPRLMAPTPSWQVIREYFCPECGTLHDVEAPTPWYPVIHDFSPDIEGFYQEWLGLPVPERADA", "assay": "X-ray crystal structure", "type": "binding", "design": "gene acxA; native purification from acetone-grown cells, untagged; (alpha beta gamma)2 heterohexamer, 360 kDa; with Acetone carboxylase gamma subunit", "settings": "co-crystallised with 10 mM ATP and 10 mM acetone; AMP bound at beta subunit; acetate at Mn site; pH 7.5"}, "[2]": {"target": "T2, acetone carboxylase (AC, XaAC), recombinant (Xanthobacter versatilis, UniProt Q8RM03+Q8RM04)", "T2 construct": "gene acxA", "T2 sequence (Q8RM04 whole entry, one chain of several)": "as the sequence (Q8RM04 whole entry, one chain of several) above", "T2 sequence (Q8RM02 2-168, one chain of several, further chain)": "as the sequence (Q8RM02 2-168, one chain of several, further chain) above", "settings": "turnover only"}, "[3]": {"target": "T1, native acetone carboxylase (AC) from X. autotrophicus 7C", "design": "gene acxA", "settings": "with acetone and HCO3-; turnover only"}, "[4]": {"target": "the molecule itself", "assay": "crystal structure; recombinant AC (αβγ)2, ligand-free and AMP-bound; hanging drop, 25 °C, 14-18% PEG 3350, 0.2 M MgSO4, pH 6.3; nucleotide additives 5 mM; SAD with selenium"}}, "note": "Read-outs that look alike come from different tables or passages of the source.", "data": [{"molecule": "Nc1ncnc2c1ncn2[C@@H]1O[C@H](COP(=O)(O)O)[C@@H](O)[C@H]1O", "note": "[AMP]", "values": [{"measurement": "X-ray crystal structure", "setting": "[1]", "value": "with AMP bound and no acetone visible in the density"}]}, {"molecule": "Nc1ncnc2c1ncn2[C@@H]1O[C@H](COP(=O)(O)OP(=O)(O)OP(=O)(O)O)[C@@H](O)[C@H]1O", "note": "[ATP]", "values": [{"measurement": "coupled spectrophotometric assay with 3-hydroxybutyrate dehydrogenase", "setting": "[2]; with acetone and HCO3-", "value": "actively catalyzed the ATP- and HCO3 ^− -dependent carboxylation of acetone to acetoacetate"}, {"measurement": "acetone carboxylation activity", "setting": "[3]", "value": "actively catalyzed the ATP- and HCO3 ^− -dependent carboxylation of acetone to acetoacetate"}]}, {"molecule": "CC(C)=O", "note": "[acetone]", "values": [{"measurement": "coupled spectrophotometric assay with 3-hydroxybutyrate dehydrogenase", "setting": "[2]; ATP and HCO3- dependent carboxylation to acetoacetate", "value": "actively catalyzed the ATP- and HCO3 ^− -dependent carboxylation of acetone to acetoacetate"}]}, {"molecule": "B1", "values": [{"measurement": "binding result", "setting": "[4]", "value": "binds"}]}]}
